Measurements published in US20160038526A1, “TREATMENT OF PROSTATE CANCER” (THOMAS JEFFERSON UNIVERSITY, priority 2012, published 2016).

Assays:
cyclin D1 = assay: Expression of Stat5 target gene cyclin D1 in CWR22Rv1 and LNCaP cells (immunoblot); format: cell-based, human; settings: 48 h or 25 μM over time
Method: Exponentially growing CWR22Rv1 and LNCaP cells were treated with N6BAP or the control compound C5 (Ctrl) for 48 h at concentrations indicated in FIG. 6 and whole cell lysates were immunoblotted with anti-cyclinD1 mAb. Exponentially growing CWR22Rv1 and LNCaP cells were treated with N6BAP or control compound C5 (Ctrl) at 25 μM for the periods of time indicated in FIG. 6, and whole cell lysates were immunoblotted with anti-cyclinD1 mAb or anti-Bcl-X1 pAb. Cell pellets were solubilized in lysis buffer [10 mM Tris-HCl (pH 7.6), 5 mM EDTA, 50 mM sodium chloride, 30 mM sodium pyrophosphate, 50 mM sodium fluoride, 1 mM sodium orthovanadate, 1% Triton X-100, 1 mM phenylmethylsulfonyl fluoride, 5 μg/ml aprotinin, 1 μg/ml pepstatin A, and […]], rotated end-over-end at 4° C. for 60 min, and insoluble material was pelleted at 12,000×g for 30 min at 4° C. The protein concentrations of clarified cell lysates were determined by simplified Bradford method (Bio-Rad Laboratories, Hercules, Calif.). The following primary antibodies were used for Western blotting, at the following concentrations: anti-β-actin pAb (1:4,000; Sigma), anti-cyclin D1 mAb (1:1000, BD Biosciences) and Bcl-xL pAb (1:1000, Cell Signaling, Danvers, Mass.).

prostate cancer cells = assay: Induction of apoptotic death of prostate cancer cells (summary of FIGS. 9A-9E); format: cell-based, human
Method: (§1) CWR22Rv1 prostate cancer cells were treated with N6BAP or the control compound C5 (Ctrl) at 25 μM concentration or vehicle for 24 h. Following trypan blue exclusion, the attached viable vs. de-attached dead cells were counted. […] The bars indicate mean±SD of triplicate wells. In another assay, CWR22Rv1, LNCaP and DU145 cells were treated with N6BAP, the control compound C5 (Ctrl) or vehicle at indicated concentrations. The fraction of alive cells was determined by MTS ([…]) metabolic activity assay (CellTiter 96® AQueous Assay kit). The results are shown in FIGS. 9C, 9D and 9E, respectively.

[1] = system: HCT116 human liver cancer cells; assay: Cell viability assay, HCT116; format: cell-based
Method: as §1
The procedure of Example 9 was followed, substituting cells of the following solid tumor cell lines for the cells treated in Example 9: A549 human lung cancer cells, CAPAN human pancreatic cancer cells, T47D human breast cancer cells, […], A2058 human melanoma and COS-7 monkey fibroblast cell lines.

Stat3 = Stat3 (Homo sapiens, UniProt P40763); assay: IL-6-induced nuclear translocation of Stat3 in DU145 cells (immunofluorescence); format: cell-based; parameters: endogenous in cells; host or cells: DU145; settings: 2 hours pretreatment, 10 nmol/L IL-6 30 minutes
Sequence of Stat3 (P40763 whole entry, species assumed): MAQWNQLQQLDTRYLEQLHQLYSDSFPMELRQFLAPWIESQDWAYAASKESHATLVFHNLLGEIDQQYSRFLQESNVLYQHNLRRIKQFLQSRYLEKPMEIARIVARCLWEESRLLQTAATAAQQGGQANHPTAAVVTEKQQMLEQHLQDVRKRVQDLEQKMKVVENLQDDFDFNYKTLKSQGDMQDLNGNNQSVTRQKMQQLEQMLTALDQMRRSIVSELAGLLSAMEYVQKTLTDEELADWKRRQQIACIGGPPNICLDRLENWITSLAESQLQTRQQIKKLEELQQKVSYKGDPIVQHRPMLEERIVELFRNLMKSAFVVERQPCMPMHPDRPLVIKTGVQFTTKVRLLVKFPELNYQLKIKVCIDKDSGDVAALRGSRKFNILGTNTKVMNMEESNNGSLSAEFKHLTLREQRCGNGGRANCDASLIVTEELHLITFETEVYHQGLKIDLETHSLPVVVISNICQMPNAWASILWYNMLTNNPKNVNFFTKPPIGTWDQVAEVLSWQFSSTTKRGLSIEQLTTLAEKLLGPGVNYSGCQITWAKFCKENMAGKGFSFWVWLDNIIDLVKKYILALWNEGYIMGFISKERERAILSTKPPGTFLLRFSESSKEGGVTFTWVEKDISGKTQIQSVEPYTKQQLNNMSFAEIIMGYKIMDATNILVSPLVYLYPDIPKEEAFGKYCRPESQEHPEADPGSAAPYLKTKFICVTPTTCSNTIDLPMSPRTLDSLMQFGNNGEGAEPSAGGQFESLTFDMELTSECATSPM
Method: DU145 prostate cancer cells were pretreated with N6BAP or vehicle (DMSO) for 2 hours and then stimulated with 10 nmol/L IL-6 for 30 minutes. Cells were fixed with 100% methanol for 15 min and subsequently permeabilized with 0.1% Triton X-100 in PBS (pH 7.4). After blocking with 2% bovine serum albumin in PBS, cells were incubated with an antibody specific for Stat3 at 4° C. for 2 hours. Cells were then washed with PBS and incubated with FITC-conjugated secondary antibody (Jackson ImmunoResearch) at room temperature for 1 hour. The images were taken by using an inverted fluorescence microscopy (Carl Zeiss).

Stat5a = biological target: T1, Stat5a (Homo sapiens, UniProt P42229); assay: Stat5a translocation to the nucleus in PC3 cells (immunofluorescence); format: cell-based; parameters: expressed in transfected cells; host or cells: PC-3 (human prostate cancer cell line); settings: 2 hours pretreatment, 10 nmol/L Prl 30 minutes
T1 sequence (P42229 1-794): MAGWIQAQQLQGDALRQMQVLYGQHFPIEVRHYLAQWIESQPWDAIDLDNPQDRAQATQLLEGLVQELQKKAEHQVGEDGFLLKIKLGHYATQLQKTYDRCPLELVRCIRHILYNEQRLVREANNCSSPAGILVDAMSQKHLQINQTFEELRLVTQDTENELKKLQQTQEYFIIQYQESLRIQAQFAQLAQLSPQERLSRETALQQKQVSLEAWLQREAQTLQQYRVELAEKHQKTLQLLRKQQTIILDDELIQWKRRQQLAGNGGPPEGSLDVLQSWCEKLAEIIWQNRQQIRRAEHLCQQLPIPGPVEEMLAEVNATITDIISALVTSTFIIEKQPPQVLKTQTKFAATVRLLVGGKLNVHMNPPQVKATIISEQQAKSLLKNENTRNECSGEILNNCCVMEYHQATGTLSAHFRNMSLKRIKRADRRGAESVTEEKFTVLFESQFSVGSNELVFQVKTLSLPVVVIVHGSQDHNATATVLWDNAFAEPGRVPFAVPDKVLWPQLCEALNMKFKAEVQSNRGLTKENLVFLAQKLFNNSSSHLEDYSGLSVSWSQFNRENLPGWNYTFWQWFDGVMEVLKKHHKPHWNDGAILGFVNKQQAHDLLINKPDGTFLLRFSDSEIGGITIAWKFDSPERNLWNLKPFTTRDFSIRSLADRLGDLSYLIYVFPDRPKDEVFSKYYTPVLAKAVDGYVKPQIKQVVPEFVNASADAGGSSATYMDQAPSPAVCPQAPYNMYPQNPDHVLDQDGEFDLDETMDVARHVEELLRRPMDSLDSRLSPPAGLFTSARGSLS
Method: PC3 cells were infected with Ade-Stat5a and Ade-PrlR at MOI 5 for each adenovirus. Cells were pretreated with N6BAP or vehicle (DMSO) for 2 hours and then stimulated with 10 nmol/L Prl for 30 minutes. Cells were fixed with 100% methanol for 15 min and subsequently permeabilized with 0.1% Triton X-100 in PBS (pH 7.4). After blocking with 2% bovine serum albumin in PBS, cells were incubated with an antibody specific for Stat5a or Stat5b at 4° C. for 2 hours. Cells were then washed with PBS and incubated with FITC-conjugated secondary antibody (Jackson ImmunoResearch) at room temperature for 1 hour. The images were taken by using an inverted fluorescence microscopy (Carl Zeiss). […] It should be noted the drug effect in this study was not due to cell apoptosis induction, as the treatment time was only 2 hours. Treatment of at least 48 hours is required for the compound to induce prostate cancer cell apoptosis.

`O=P(O)(O)OC[C@H]1O[C@@H](n2cnc3c(NCc4ccccc4)ncnc32)[C@H](O)[C@@H]1O` [N6BAP, N^6-benzyladenosine-5′-monophosphate] was tested, and the “expression of cyclin D1” value (cyclin D1) was “down-regulates expression”, the “treatment time required to induce prostate cancer cell apoptosis” value (prostate cancer cells) was “at least 48 hours” and the “apoptotic death of prostate cancer cells” value (prostate cancer cells; CWR22Rv1, LNCaP, DU145) was “induces apoptotic death of prostate cancer cells”. The cell viability [1] was “did not affect the viability”, the “nuclear translocation of IL-6-induced Stat3” value (Stat3) was “did not block translocation of Stat3 to the nucleus” and the “translocation of Stat5a to the nucleus” value (Stat5a) was “blocks translocation of Stat5a to the nucleus”.
